Assay results published in the supplement of paper PMC10132981, “Formate overflow drives toxic folate trapping in MTHFD1 inhibited cancer cells” (Nature Metabolism, 2023).
± gives the standard deviation of the averaged measurements.

Assays:
[1] = tested on: SW620; assay: cell viability relative to lowest-dose well (resazurin, 96 h); higher = more viable; conditions: RPMI + 10% FBS
How it was run: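 Compounds from 10 mM DMSO stocks were dispensed as dilution series onto HCT116 (500 cells/well) or SW620 (1,000 cells/well) cells growing in 384-well plates in 50 µl RPMI, 10% FBS and a metabolite supplement. Plates were incubated 96 h at 37 °C, 5% CO2, then resazurin (10 µg ml^−1) was added and its conversion to resorufin read by fluorescence at 595 nm after 5 h. Viability is shown as percent of the lowest-dose well for independent replicate cultures. Viability was read by resazurin-to-resorufin conversion and normalised to the lowest-dose vehicle well (=100%).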

[2] = tested on: SW620; assay: EC50 for viability (resazurin, 96 h); conditions: RPMI+GlutaMAX (10% FBS, 1% P/S)

Cc1[nH]nc2c1C(c1cc(CO)cc(-c3ccccc3)c1)(C(C)C)C(C#N)=C(N)O2 (stereo unspecified) [SHIN1]
cell viability [%], [1]
Conditions | metabolite supplement: 1mM sodium formate | metabolite supplement: 50uM thymidine | metabolite supplement: 50uM thymidine + 1mM sodium formate | metabolite supplement: 50uM thymidine + 250uM hypoxanthine | metabolite supplement: 250uM hypoxanthine | metabolite supplement: vehicle
0.001 µM | 100 | 100 | 100 | 100 | 100 | 100
0.01 µM | 99.57 ± 0.81 | 98.9 ± 3.2 | 102 ± 4.5 | 103 ± 6.6 | 102 ± 2.9 | 100 ± 3.3
0.0233 µM | 98.7 ± 2.5 | 99.2 ± 3.3 | 102 ± 5.4 | 103 ± 6.7 | 96.7 ± 3.4 | 95 ± 4
0.0541 µM | 98.5 ± 1.8 | 102 ± 4.5 | 104 ± 3.7 | 103 ± 6.3 | 101 ± 1.5 | 98.63 ± 0.57
0.126 µM | 97.4 ± 3 | 102 ± 4.4 | 104 ± 4.7 | 103 ± 3.7 | 101 ± 1.7 | 97.1 ± 4
0.293 µM | 96.93 ± 0.47 | 99.6 ± 2.2 | 101 ± 4.7 | 105 ± 6.2 | 98.8 ± 5.2 | 95 ± 4.8
0.682 µM | 95.3 ± 1.8 | 96 ± 5.7 | 103 ± 3.1 | 104 ± 5.8 | 98.8 ± 3.3 | 88.6 ± 5.6
1.59 µM | 94.8 ± 1.8 | 85.5 ± 6.5 | 100 ± 4.4 | 108 ± 10 | 98.8 ± 5.5 | 82.9 ± 6.3
3.69 µM | 92.3 ± 1.8 | 75 ± 5.8 | 98.1 ± 5.1 | 104 ± 3.6 | 96.4 ± 3 | 72.3 ± 4.8
8.6 µM | 89.6 ± 0.95 | 69.3 ± 4.3 | 95.2 ± 3.3 | 102 ± 7.9 | 93.9 ± 4.7 | 68 ± 2.6
20 µM | 78.2 ± 8.7 | 66.5 ± 6.1 | 83.8 ± 6.6 | 90.8 ± 7.1 | 84.8 ± 11 | 66 ± 3.5

[2]
Conditions | EC50 for viability [µM]
metabolite supplement: Hypoxanthine | > 10
metabolite supplement: Sodium Formate | > 10
metabolite supplement: Thymidine | 1.88
metabolite supplement: Thymidine + Hypoxanthine | > 10
metabolite supplement: Thymidine + Sodium Formate | > 10
